Assay [1] has as its system NASH mice. The assay is described as follows: Serum TG in NASH mice. The assay is classed as in vivo, C57BL/6J mice. The note with it: mean±SD. How it is done: Non-fasting blood glucose was measured in whole blood using Life Check (EIDIA, Japan). For serum biochemistry, blood was collected in polypropylene tubes without anticoagulant and kept at room temperature for 30 minutes, followed by at 4° C. for 1 hour. The blood samples were then centrifuged at 1,000×g for 15 minutes at 4° C. The supernatant was collected and stored at −80° C. until use. Serum ALT and TG levels were measured by FUJI DRI-CHEM 7000 (Fujifilm, Japan).

Assay [2] relates to NASH mice. Description: Liver hydroxyproline content in NASH mice. The following applies: μg per mg total protein, mean±SD, Vehicle 0.79±0.19, no significant difference. Format: in vivo, C57BL/6J mice. How it is done:
To quantify liver hydroxyproline content, frozen liver samples (35-45 mg) were processed by an alkaline-acid hydrolysis method as follows: the livers were defatted with 100% acetone, dried in the air, dissolved in 2N NaOH at 65° C., and autoclaved at 121° C. for 20 minutes. The lysed samples (400 μL) were acid-hydrolyzed with 400 μL of 6N HCl at 121° C. for 20 minutes, and neutralized with 400 μL of 4N NaOH containing 10 mg/mL activated carbon. AC buffer (2.2M acetic acid/0.48M citric acid, 400 μL) was added to the samples, followed by centrifugation to collect the supernatant. To construct a standard curve of hydroxyproline, serial dilutions of trans-4-hydroxy-Lproline (Sigma-Aldrich) were prepared starting at 16 μg/mL. The prepared samples and standards (each 400 μL) were mixed with 400 μL chloramine T solution (Wako Pure Chemical Industries, Japan) and incubated for 25 minutes at room temperature. The samples were then mixed with Ehrlich's solution (400 μL) and heated at 65° C. for 20 minutes to develop the color. After samples were cooled on ice and centrifuged to remove precipitates, the optical density of each supernatant was measured at 560 nm. The concentrations of hydroxyproline were calculated from the hydroxyproline standard curve. Protein concentrations of liver samples were determined using a BCA protein assay kit (Thermo Fisher Scientific, USA) and used to normalize the calculated hydroxyproline values. Hydroxyproline levels were expressed as μg per mg total protein.

The structures appear in SMILES notation.

With `C[C@H]1[C@H]2N(C(=O)CN(C)N2C(=O)NCc2ccccc2)[C@@H](Cc2ccc(OP(=O)(O)O)cc2)C(=O)N1Cc1cccc2cccnc12` [Compound A, 4-(((6S,9S,9aS)-1-(benzylcarbamoyl)-2,9-dimethyl-4,7-dioxo-8-(quinolin-8-ylmethyl)octahydro-1H-pyrazino[2,1-c][1,2,4]triazin-6-yl)methyl)phenyl dihydrogen phosphate], the “Serum TG” value is 1145 ± 580 mg/dL with NASH mice [1] (high dose 3 mg/kg/day s.c. infusion 9-13 wks, Vehicle 391±175, increased) and 815 ± 754 mg/dL in the assay on NASH mice [1] (low dose 1 mg/kg/day s.c. infusion 9-13 wks, Vehicle 391±175, no significant difference). Also, the Liver hydroxyproline content with NASH mice [2] (high dose 3 mg/kg/day s.c. infusion 9-13 wks) turned out to be 0.95 ± 0.22 µg/mg; with NASH mice [2] (low dose 1 mg/kg/day s.c. infusion 9-13 wks) it was 0.90 ± 0.26 µg/mg.

The record behind these values is patent US20160263131A1, “TREATMENT OF HEPATIC FIBROSIS USING AN INHIBITOR OF CBP/CATENIN” (priority 2013, published 2016).
